Tests used:
[1] = target: BIR2 domain of XIAP (Homo sapiens (Human), UniProt P98170, C202A/C213G); test: TR-FRET assay for BIR2 (inhibition of binding of XIAP BIR2 domain to Peptide A); conditions: 6x His-tagged BIR2 domain (aa 124-240 of XIAP), 20 nM Peptide A
Experimental: (§1) TR-FRET Assay for BIR2 and BIR3
(§2) The peptides were labeled with the fluorescent tags FITC or TAMRA and Kd values were determined by fluorescence polarization assay. […] The peptide sequence was derivatized with biotin to provide […]-(ε-biotin)-OH 1:2 TFA as the substrate for the TR-FRET assay.
The XIAP protein sequence was obtained from the SWISS-PROT protein sequence database and the BIR2 and BIR3 domains were derived from that. The sequence of the BIR2 domain used for the TR-FRET assay is
(§3) Time-resolved fluorescence resonance energy transfer (TR-FRET) signals were measured 1 hour later at room temperature. Test compound potency was assessed at 10 serially diluted concentrations. Percentage of inhibition at each concentration was determined to generate an IC50 value for each test compound.

[2] = target: BIR3 domain of XIAP (Homo sapiens (Human), UniProt P98170); test: TR-FRET assay for BIR3 (inhibition of binding of XIAP BIR3 domain to Peptide A); conditions: 6x His-tagged BIR3 domain (aa 241-356 of XIAP), 20 nM Peptide A
Sequence of BIR3 domain of XIAP (P98170 other isoform, or with tags, fused parts or gaps): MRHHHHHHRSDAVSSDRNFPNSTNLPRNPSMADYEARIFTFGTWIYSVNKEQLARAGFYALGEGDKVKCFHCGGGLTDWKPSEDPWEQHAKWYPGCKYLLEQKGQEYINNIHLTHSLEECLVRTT
Experimental: as §1, §2
The sequence of the BIR3 domain used for the TR-FRET assay is
as §3

Sequence of BIR2 domain of XIAP (P98170 other isoform, or with tags, fused parts or gaps, stated change not applied): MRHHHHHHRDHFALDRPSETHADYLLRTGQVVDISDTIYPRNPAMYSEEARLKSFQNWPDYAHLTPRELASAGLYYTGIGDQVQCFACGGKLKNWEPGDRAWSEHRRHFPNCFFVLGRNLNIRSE

| IC50 [1] [µM] | IC50 [2] [µM] | SMILES |
| --- | --- | --- |
| 0.047 | > 54.8 | CN[C@@H](C)C(=O)N[C@H](C(=O)N1CCc2ccc(Cl)cc2[C@H]1C(=O)Nc1c(F)cccc1F)C(C)C [Example 45, 7-chloro-N-(2,6-difluorophenyl)-2-((S)-3-methyl-2-((S)-2-(methylamino)propanamido)butanoyl)-1,2,3,4-tetrahydroisoquinoline-1-carboxamide] |
| 4.71 | > 54.8 | CN[C@@H](C)C(=O)N[C@H](C(=O)N1CCc2ccc(Cl)cc2[C@@H]1C(=O)Nc1c(F)cccc1F)C(C)C [Example 44, 7-chloro-N-(2,6-difluorophenyl)-2-((S)-3-methyl-2-((S)-2-(methylamino)propanamido)butanoyl)-1,2,3,4-tetrahydroisoquinoline-1-carboxamide] |
| 2.35 | > 54.8 | CN[C@@H](C)C(=O)N[C@H](C(=O)N1CCc2ccc(F)cc2[C@@H]1C(=O)Nc1c(F)cccc1F)C(C)C [Example 41, N-(2,6-difluorophenyl)-7-fluoro-2-((S)-3-methyl-2-((S)-2-(methylamino)propanamido)butanoyl)-1,2,3,4-tetrahydroisoquinoline-1-carboxamide] |
| 0.027 | > 54.8 | CN[C@@H](C)C(=O)N[C@H](C(=O)N1CCc2ccc(F)cc2[C@H]1C(=O)Nc1c(F)cccc1F)C(C)C [Example 42, N-(2,6-difluorophenyl)-7-fluoro-2-((S)-3-methyl-2-((S)-2-(methylamino)propanamido)butanoyl)-1,2,3,4-tetrahydroisoquinoline-1-carboxamide] |

Source: US9422332B2, “Azaheterocycles as BIR2 and/or BIR3 inhibitors” (Hoffmann-La Roche Inc., priority 2012, dated 2016)
